Measurements published in ChEMBL document CHEMBL1201862, “PubChem BioAssay data set” (2004).
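Protocol summary: plate cells (96-well), add compound at 5 concentrations, incubate 48 h, interpolate endpoints linearly. Abbreviation: GI50, concentration required for 50% inhibition of growth.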 Activity calls are given as the source filed them. Cut-off read from the data, not from the text of the source: active = GI50 up to about 1.1 µM and inactive = higher.

What was measured:
Experiment in all cases: growth of human tumour cells (NCI), 48 h
HCC 2998 = test system: HCC 2998
SNB-19 = test system: SNB-19
HOP-18 = test system: HOP-18
OVCAR-5 = test system: OVCAR-5
EKVX = test system: EKVX
OVCAR-4 = test system: OVCAR-4
CAKI-1 = test system: CAKI-1
HOP-92 = test system: HOP-92
SK-OV-3 = test system: SK-OV-3
HT-29 = test system: HT-29
786-0 = test system: 786-0
LXFL 529 = test system: LXFL 529
UACC-62 = test system: UACC-62
NCI-H522 = test system: NCI-H522
KM-20L2 = test system: KM-20L2
LOX IMVI = test system: LOX IMVI
Malme-3M = test system: Malme-3M
IGROV-1 = test system: IGROV-1
UACC-257 = test system: UACC-257
MOLT-4 = test system: MOLT-4
A549 = test system: A549
M14 = test system: M14
SW-620 = test system: SW-620
NCI-H460 = test system: NCI-H460
OVCAR-3 = test system: OVCAR-3
CCRF-CEM = test system: CCRF-CEM
DMS-273 = test system: DMS-273
A498 = test system: A498
DLD-1 = test system: DLD-1
SNB-75 = test system: SNB-75
K562 = test system: K562
SK-MEL-28 = test system: SK-MEL-28
SF-539 = test system: SF-539
UO-31 = test system: UO-31
OVCAR-8 = test system: OVCAR-8
SK-MEL-2 = test system: SK-MEL-2
SF-295 = test system: SF-295
SF-268 = test system: SF-268
SK-MEL-5 = test system: SK-MEL-5
M19-MEL = test system: M19-MEL
RXF 393 = test system: RXF 393
KM12 = test system: KM12
TK-10 = test system: TK-10
XF498 = test system: XF498
COLO 205 = test system: COLO 205
RPMI-8226 = test system: RPMI-8226
U-251 = test system: U-251
ACHN = test system: ACHN
SN12C = test system: SN12C
HCT-15 = test system: HCT-15
NCI-H23 = test system: NCI-H23

Question: O=C(Nc1ccc(S(=O)(=O)N[C@@H](C(=O)O)c2ccccc2)cc1)c1ccc(F)cc1 was tested. Which GI50 (HCC 2998) did it give?
Answer: Its GI50 is > 100 µM (inactive).

Question: What about the GI50 (SNB-19) of the same molecule?
Answer: Its GI50 is > 100 µM (inactive).

Question: What about the GI50 (HOP-18) of the same molecule?
Answer: Its GI50 is > 100 µM (inactive).

Question: What about the GI50 (OVCAR-5) of the same molecule?
Answer: Its GI50 is > 100 µM (inactive).

Question: What about the GI50 (EKVX) of the same molecule?
Answer: The GI50 was > 100 µM (inactive).

Question: What about the GI50 (OVCAR-4) of the same molecule?
Answer: Its GI50 is > 100 µM (inactive).

Question: And the GI50 (CAKI-1)?
Answer: Its GI50 is > 100 µM (inactive).

Question: And the GI50 (HOP-92)?
Answer: The GI50 was > 100 µM (inactive).

Question: And the GI50 (SK-OV-3)?
Answer: Its GI50 is > 100 µM (inactive).

Question: And the GI50 (HT-29)?
Answer: The GI50 was > 100 µM (inactive).

Question: And the GI50 (786-0)?
Answer: Its GI50 is > 100 µM (inactive).

Question: What about the GI50 (LXFL 529) of the same molecule?
Answer: The GI50 was > 100 µM (inactive).

Question: What about the GI50 (UACC-62) of the same molecule?
Answer: The GI50 was > 100 µM (inactive).

Question: What about the GI50 (NCI-H522) of the same molecule?
Answer: The GI50 was > 100 µM (inactive).

Question: And the GI50 (KM-20L2)?
Answer: The GI50 was > 100 µM (inactive).

Question: And the GI50 (LOX IMVI)?
Answer: Its GI50 is > 100 µM (inactive).

Question: And the GI50 (Malme-3M)?
Answer: The GI50 was > 100 µM (inactive).

Question: What about the GI50 (IGROV-1) of the same molecule?
Answer: The GI50 was > 100 µM (inactive).

Question: What about the GI50 (UACC-257) of the same molecule?
Answer: The GI50 was > 100 µM (inactive).

Question: What about the GI50 (MOLT-4) of the same molecule?
Answer: The GI50 was > 100 µM (inactive).

Question: What about the GI50 (A549) of the same molecule?
Answer: Its GI50 is > 100 µM (inactive).

Question: What about the GI50 (M14) of the same molecule?
Answer: The GI50 was > 100 µM (inactive).

Question: What about the GI50 (SW-620) of the same molecule?
Answer: Its GI50 is > 100 µM (inactive).

Question: What about the GI50 (NCI-H460) of the same molecule?
Answer: The GI50 was > 100 µM (inactive).

Question: What about the GI50 (OVCAR-3) of the same molecule?
Answer: The GI50 was > 100 µM (inactive).

Question: What about the GI50 (CCRF-CEM) of the same molecule?
Answer: Its GI50 is > 100 µM (inactive).

Question: And the GI50 (DMS-273)?
Answer: The GI50 was > 100 µM (inactive).

Question: And the GI50 (A498)?
Answer: The GI50 was > 100 µM (inactive).

Question: And the GI50 (DLD-1)?
Answer: The GI50 was > 100 µM (inactive).

Question: And the GI50 (SNB-75)?
Answer: Its GI50 is > 100 µM (inactive).

Question: And the GI50 (K562)?
Answer: The GI50 was > 100 µM (inactive).

Question: And the GI50 (SK-MEL-28)?
Answer: The GI50 was > 100 µM (inactive).

Question: And the GI50 (SF-539)?
Answer: The GI50 was > 100 µM (inactive).

Question: What about the GI50 (UO-31) of the same molecule?
Answer: Its GI50 is > 100 µM (inactive).

Question: What about the GI50 (OVCAR-8) of the same molecule?
Answer: The GI50 was > 100 µM (inactive).

Question: And the GI50 (SK-MEL-2)?
Answer: The GI50 was > 100 µM (inactive).

Question: What about the GI50 (SF-295) of the same molecule?
Answer: The GI50 was > 100 µM (inactive).

Question: What about the GI50 (SF-268) of the same molecule?
Answer: Its GI50 is > 100 µM (inactive).

Question: What about the GI50 (SK-MEL-5) of the same molecule?
Answer: Its GI50 is > 100 µM (inactive).

Question: And the GI50 (M19-MEL)?
Answer: Its GI50 is > 100 µM (inactive).

Question: What about the GI50 (RXF 393) of the same molecule?
Answer: Its GI50 is > 100 µM (inactive).

Question: And the GI50 (KM12)?
Answer: Its GI50 is > 100 µM (inactive).

Question: What about the GI50 (TK-10) of the same molecule?
Answer: The GI50 was > 100 µM (inactive).

Question: What about the GI50 (XF498) of the same molecule?
Answer: Its GI50 is 67.5 µM (inactive).

Question: What about the GI50 (COLO 205) of the same molecule?
Answer: Its GI50 is > 100 µM (inactive).

Question: And the GI50 (RPMI-8226)?
Answer: The GI50 was > 100 µM (inactive).

Question: What about the GI50 (U-251) of the same molecule?
Answer: Its GI50 is > 100 µM (inactive).

Question: And the GI50 (ACHN)?
Answer: Its GI50 is > 100 µM (inactive).

Question: And the GI50 (SN12C)?
Answer: The GI50 was > 100 µM (inactive).

Question: And the GI50 (HCT-15)?
Answer: The GI50 was over 100 µM.

Question: And the GI50 (NCI-H23)?
Answer: Its GI50 is > 100 µM (inactive).
